Source: PubChem BioAssay AID248 (DTP/NCI, 2004)
Where “and” joins values, the source holds several entries; their conditions need not be identical. Equal values may be shown once. Inconclusive results and toxic doses are left out. No stated cut-off is given here; in the data, active means T/C of 150% or more; inactive means T/C below 125%.

Tested on: L1210 leukemia ip in BDF1 mice, survival T/C
Test: NCI In Vivo Anticancer Drug Screen. Data for tumor model L1210 Leukemia (intraperitoneal) in B6D2F1 (BDF1) mice
Details: endpoint: mean survival time, higher = longer survival
Method in brief: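 Each compound was tested against a transplantable tumor grown in mice. The endpoint was survival, with treated animals benchmarked against vehicle controls as a simple ratio.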

[1] = dose: 100.0 mg/kg/injection, schedule: Q04DX003 (ip), vehicle: Klucel (hydroxypropylcellulose) (HPC)
[2] = dose: 200.0 mg/kg/injection, schedule: Q04DX003 (ip), vehicle: Klucel (hydroxypropylcellulose) (HPC)
[3] = dose: 400.0 mg/kg/injection, schedule: Q04DX003 (ip), vehicle: Klucel (hydroxypropylcellulose) (HPC)
[4] = dose: 100.0 mg/kg/injection, schedule: Q04DX002 (ip), vehicle: Klucel (hydroxypropylcellulose) (HPC)
[5] = dose: 200.0 mg/kg/injection, schedule: Q04DX002 (ip), vehicle: Klucel (hydroxypropylcellulose) (HPC)
[6] = dose: 400.0 mg/kg/injection, schedule: Q04DX002 (ip), vehicle: Klucel (hydroxypropylcellulose) (HPC)
[7] = dose: 100.0 mg/kg/injection, schedule: Q04DX003 (ip), vehicle: saline with Tween-80
[8] = dose: 200.0 mg/kg/injection, schedule: Q04DX003 (ip), vehicle: saline with Tween-80
[9] = dose: 100.0 mg/kg/injection, schedule: Q01DX009 (ip), vehicle: Klucel (hydroxypropylcellulose) (HPC)
[10] = dose: 100.0 mg/kg/injection, schedule: Q01DX009 (ip), vehicle: saline
[11] = dose: 200.0 mg/kg/injection, schedule: Q01DX009 (ip), vehicle: saline
[12] = dose: 400.0 mg/kg/injection, schedule: Q01DX009 (ip), vehicle: saline
[13] = dose: 400.0 mg/kg/injection, schedule: Q04DX003 (ip), vehicle: saline with Tween-80
[14] = dose: 100.0 mg/kg/injection, schedule: Q04DX003 (ip), vehicle: saline
[15] = dose: 200.0 mg/kg/injection, schedule: Q04DX003 (ip), vehicle: saline
[16] = dose: 400.0 mg/kg/injection, schedule: Q04DX003 (ip), vehicle: saline

Measured: T/C

COc1ccc(CCN2C(=O)c3cccc4c(Br)ccc(c34)C2=O)cc1
inactive: dose: 100.0 mg/kg/injection, schedule: Q04DX002 (ip), vehicle: saline 93 % of control | dose: 200.0 mg/kg/injection, schedule: Q04DX002 (ip), vehicle: saline 93 % of control | dose: 400.0 mg/kg/injection, schedule: Q04DX002 (ip), vehicle: saline 97 % of control

Cc1cc(S(=O)(=O)F)ccc1NC(=O)NCc1ccc([N+](=O)[O-])cc1Cl
inactive: [1] 112 % of control | [2] 101 % of control

CS(=O)(=O)Nc1ccc(NS(C)(=O)=O)c(SCc2ccccc2)c1
inactive: dose: 100.0 mg/kg/injection, schedule: Q01DX001 (ip), vehicle: Klucel (hydroxypropylcellulose) (HPC) 95 % of control | [1] 96 % of control | dose: 200.0 mg/kg/injection, schedule: Q01DX001 (ip), vehicle: Klucel (hydroxypropylcellulose) (HPC) 98 % of control | [2] 89 % of control | dose: 400.0 mg/kg/injection, schedule: Q01DX001 (ip), vehicle: Klucel (hydroxypropylcellulose) (HPC) 95 % of control | [3] 102 % of control

Cc1ccc(C)c(NC(=O)NC(C)(C)C)c1
inactive: [4] 105 % of control | [5] 102 % of control | [6] 117 % of control

Cc1cccc(N=C(N)N=C(N)N)c1
inactive: [7] 102 % of control | [8] 88 % of control

CCN1/C(=C\c2ccc3cc(OC)ccc3[n+]2CC)[Se]c2ccc(OC)cc21
inactive: dose: 1.0 mg/kg/injection, schedule: Q01DX001 (ip), vehicle: other 98 % of control | dose: 2.0 mg/kg/injection, schedule: Q01DX001 (ip), vehicle: other 103 % of control | dose: 4.0 mg/kg/injection, schedule: Q01DX001 (ip), vehicle: other 103 % of control

COc1cc(Cl)ccc1NC(=O)Oc1ccccc1C(N)=O
inactive: dose: 6.25 mg/kg/injection, schedule: Q01DX009 (ip), vehicle: Klucel (hydroxypropylcellulose) (HPC) 102 % of control | dose: 12.5 mg/kg/injection, schedule: Q01DX009 (ip), vehicle: Klucel (hydroxypropylcellulose) (HPC) 91 % of control | dose: 25.0 mg/kg/injection, schedule: Q01DX009 (ip), vehicle: Klucel (hydroxypropylcellulose) (HPC) 97 % of control | dose: 50.0 mg/kg/injection, schedule: Q01DX009 (ip), vehicle: Klucel (hydroxypropylcellulose) (HPC) 91 % of control | [9] 100 % of control

c1ccc2c[n+](CCc3c[nH]c4ccccc34)ccc2c1
inactive: [4] 100 % of control | [1] 96 % of control | [2] 104 % of control

O=c1c(O)cccc2cc(O)c(O)c(O)c12
inactive: dose: 12.5 mg/kg/injection, schedule: Q01DX009 (ip), vehicle: saline 100 % of control | dose: 25.0 mg/kg/injection, schedule: Q01DX009 (ip), vehicle: saline 94 % of control and 97 % of control and 107 % of control | dose: 50.0 mg/kg/injection, schedule: Q01DX009 (ip), vehicle: saline 95 % of control and 101 % of control (2×) | [10] 101 % of control | [11] 94 % of control and 92 % of control

O=C(O)c1ccc(C(=O)Nc2cccc3ccccc23)c(C(=O)O)c1
inactive: [4] 106 % of control | [5] 103 % of control | [6] 103 % of control

O=C(O)C1CC=CCC1C(=O)NC(O)C(Cl)(Cl)Cl (configuration not stated)
inactive: dose: 100.0 mg/kg/injection, schedule: Q01DX001 (ip), vehicle: saline 96 % of control | [10] 103 % of control | dose: 100.0 mg/kg/injection, schedule: Q04DX003 (ip), vehicle: acetone 93 % of control | dose: 200.0 mg/kg/injection, schedule: Q01DX001 (ip), vehicle: saline 100 % of control | [11] 102 % of control | dose: 200.0 mg/kg/injection, schedule: Q04DX003 (ip), vehicle: acetone 98 % of control | dose: 400.0 mg/kg/injection, schedule: Q01DX001 (ip), vehicle: saline 95 % of control | [12] 100 % of control | dose: 400.0 mg/kg/injection, schedule: Q04DX003 (ip), vehicle: acetone 97 % of control

NC1(C(=O)O)CCCC2CCCCC21 (configuration not stated)
inactive: [9] 100 % of control | [4] 93 % of control | dose: 200.0 mg/kg/injection, schedule: Q01DX009 (ip), vehicle: Klucel (hydroxypropylcellulose) (HPC) 96 % of control | [5] 93 % of control | dose: 400.0 mg/kg/injection, schedule: Q01DX009 (ip), vehicle: Klucel (hydroxypropylcellulose) (HPC) 91 % of control | [6] 96 % of control

CCOC(=O)CN1C(=O)NC2(CCc3ccccc3C2)C1=O (configuration not stated)
inactive: [13] 98 % of control

O=C(Cl)OCCOCCOC(=O)Cl
inactive: [14] 86 % of control | [11] 89 % of control | [15] 94 % of control | [12] 90 % of control | [16] 92 % of control

Cc1ccc(S(=O)(=O)N=Nc2c(O)[nH]c3ccccc23)cc1
inactive: dose: 75.0 mg/kg/injection, schedule: Q04DX002 (ip), vehicle: gum acacia 93 % of control | dose: 150.0 mg/kg/injection, schedule: Q04DX002 (ip), vehicle: gum acacia 93 % of control | dose: 300.0 mg/kg/injection, schedule: Q04DX002 (ip), vehicle: gum acacia 100 % of control

CN(C)CCC(c1ccccc1)(c1ccccc1)c1ccccc1
inactive: dose: 50.0 mg/kg/injection, schedule: Q01DX001 (ip), vehicle: carboxymethylcellulose (CMC) 92 % of control | dose: 100.0 mg/kg/injection, schedule: Q01DX001 (ip), vehicle: carboxymethylcellulose (CMC) 92 % of control | dose: 200.0 mg/kg/injection, schedule: Q01DX001 (ip), vehicle: carboxymethylcellulose (CMC) 94 % of control

O=C(Nc1ccc(CC2=NCCN2)cc1)c1cccc(C(=O)Nc2ccc(CC3=NCCN3)cc2)c1
inactive: dose: 6.5 mg/kg/injection, schedule: Q01DX Z (ip), vehicle: carboxymethylcellulose (CMC) 100 % of control | dose: 9.7 mg/kg/injection, schedule: Q01DX Z (ip), vehicle: carboxymethylcellulose (CMC) 93 % of control | dose: 14.6 mg/kg/injection, schedule: Q01DX Z (ip), vehicle: carboxymethylcellulose (CMC) 94 % of control | dose: 22.0 mg/kg/injection, schedule: Q01DX Z (ip), vehicle: carboxymethylcellulose (CMC) 94 % of control | dose: 22.2 mg/kg/injection, schedule: Q01DX Z (ip), vehicle: carboxymethylcellulose (CMC) 95 % of control

COc1nsc(N)n1
inactive: dose: 100.0 mg/kg/injection, schedule: Q01DX001 (ip), vehicle: saline with Tween-80 100 % of control | dose: 200.0 mg/kg/injection, schedule: Q01DX001 (ip), vehicle: saline with Tween-80 104 % of control | dose: 400.0 mg/kg/injection, schedule: Q01DX001 (ip), vehicle: saline with Tween-80 91 % of control

COCCNP(=S)(OC)OC
inactive: dose: 100.0 mg/kg/injection, schedule: Q01DX009 (ip), vehicle: saline with Tween-80 93 % of control | [7] 101 % of control | dose: 200.0 mg/kg/injection, schedule: Q01DX009 (ip), vehicle: saline with Tween-80 95 % of control | [8] 106 % of control | dose: 400.0 mg/kg/injection, schedule: Q01DX009 (ip), vehicle: saline with Tween-80 101 % of control | [13] 92 % of control

O=C(O)COc1ccccc1Cl
inactive: [1] 105 % of control | [2] 104 % of control | [3] 107 % of control

CCNC(=O)N1CC2CCC(C1)N2C
inactive: [14] 113 % of control | [15] 106 % of control | [16] 98 % of control
